Drawing on DBAASP, this text covers MIC for six compounds.

Molecules are shown by their SMILES. Values after ≈ are worked out from the molar mass of the structure shown. Values joined by “and” are separate entries in the source; they are usually repeats but may differ in a detail not shown here. Equal values may be shown once.

Among the test systems are Escherichia coli 363; Staphylococcus aureus; Pseudomonas aeruginosa; Salmonella enterica; Escherichia coli JM109; Escherichia coli PFH13; Escherichia coli PFL6; Escherichia coli PFH12; Staphylococcus xylosus; Escherichia coli BL21; Escherichia coli PFH1; Citrobacter koseri; Escherichia coli E423-17.
Holding throughout (test): ≥ marks a high value that may be exact or a test limit, other limits are often not marked, values filed in µg/mL are converted to µM
Assay [1] concerns Candida albicans ATCC 37092.
Assay [2] relates to Escherichia coli ATCC 25922.
For assay [3], the system named is Staphylococcus aureus ATCC 29213.
Assay [4] concerns Staphylococcus aureus ATCC 43300.
In assay [5] the test system is Staphylococcus aureus ATCC BAA-39.
Assay [6] has as its system Klebsiella pneumoniae ATCC 13883.
In assay [7] the test system is Staphylococcus aureus ATCC 25923.
Assay [8] has as its system Listeria monocytogenes ATCC 19115.
The subject of assay [9] is Salmonella enterica subsp. enterica serovar Enteritidis ATCC 13076.
Assay [10] concerns Bacillus cereus ATCC 11778.
Assay [11] concerns Staphylococcus aureus CCRC 12652.
Assay [12] has as its system Klebsiella pneumoniae CCRC 10694.
Assay [13] deals with Candida albicans ATCC 10231.
The subject of assay [14] is Salmonella typhimurium CCRC 12947.
The subject of assay [15] is Pseudomonas aeruginosa ATCC 27853.
Assay [16] relates to Staphylococcus aureus CCRC 15211.
Assay [17] relates to Vibrio parahaemolyticus CCRC 10806.
Assay [18] relates to Enterococcus faecalis ATCC 29212.
Assay [19] deals with Listeria monocytogenes ATCC 15313.
Assay [20] deals with Streptococcus alactolyticus.
The subject of assay [21] is Salmonella enterica subsp. enterica serovar Typhimurium ATCC 14028.
Assay [22] relates to Klebsiella pneumoniae ATCC 10031.
The test system of assay [23] is Escherichia coli ATCC 11219.
Assay [24] deals with Pseudomonas aeruginosa ATCC 13388.
Assay [25] relates to Staphylococcus aureus ATCC 6538.
The subject of assay [26] is Klebsiella pneumoniae E406-17.
Assay [27] relates to Pseudomonas aeruginosa E411-17.
The subject of assay [28] is Acinetobacter baumannii B28-16.
In assay [29] the test system is Staphylococcus aureus USA 300.

By MIC is commonly meant the lowest concentration that inhibits growth of the organism. High values mean a less susceptible organism, low ones a more susceptible organism. In the case of `CC[C@H](C)[C@H](NC(=O)[C@@H]1CCCN1C(=O)[C@H](CCCN=C(N)N)NC(=O)[C@@H]1CCCN1C(=O)CNC(=O)[C@@H]1CCCN1C(=O)[C@H](CCCN=C(N)N)NC(=O)[C@@H]1CCCN1C(=O)[C@H](Cc1ccccc1)NC(=O)[C@@H]1CCCN1C(=O)[C@H](CC(C)C)NC(=O)[C@@H]1CCCN1)C(=O)N1CCC[C@H]1C(=O)N[C@@H](CCCN=C(N)N)C(=O)N1CCC[C@H]1C(=O)O` [PLPFPRPGPRPIPRP], the MIC in assay [1] is 30.5 µM (≈ 51.7 µg/mL); in assay [2] it was above 500 µM; in assay [3], above 500 µM.

In the case of `CC(C)C[C@H](NC(=O)[C@H](CCCN=C(N)N)NC(=O)[C@H](CCCN=C(N)N)NC(=O)[C@H](CC(C)C)NC(=O)[C@H](CC(C)C)NC(=O)[C@H](CCCN=C(N)N)NC(=O)[C@H](CCCN=C(N)N)NC(=O)[C@H](CC(C)C)NC(=O)[C@H](CC(C)C)NC(=O)[C@H](CCCN=C(N)N)NC(=O)[C@H](CCCN=C(N)N)NC(=O)[C@H](CC(C)C)NC(=O)[C@H](CCCN=C(N)N)NC(=O)[C@@H](N)CCCN=C(N)N)C(=O)N[C@@H](CCCN=C(N)N)C(=O)N[C@@H](CCCN=C(N)N)C(N)=O` [RRLRRLLRRLLRRLRR], the MIC in the assay with Escherichia coli 363 was at least 50 µM; in the assay on Staphylococcus aureus it was 9 µM (≈ 20.3 µg/mL).

Consider `CC[C@H](C)[C@H](NC(=O)[C@H](CCCCN)NC(=O)[C@H](CCCN=C(N)N)NC(=O)[C@H](CC(C)C)NC(=O)[C@H](Cc1ccccc1)NC(=O)[C@H](CCCN=C(N)N)NC(=O)CNC(=O)[C@H](Cc1ccccc1)NC(=O)[C@H](CCCN=C(N)N)NC(=O)CNC(=O)[C@H](CCCN=C(N)N)NC(=O)[C@H](CCC(N)=O)NC(=O)[C@@H](NC(=O)[C@@H](N)CC(C)C)C(C)C)C(=O)N[C@@H](CCCN=C(N)N)C(=O)N[C@@H](CCCN=C(N)N)C(=O)N[C@@H](Cc1ccccc1)C(=O)N[C@@H](CCCN=C(N)N)C(=O)O` [LVQRGRFGRFLRKIRRFR], for which the MIC in assay [4] was 2 µM (≈ 4.72 µg/mL); in [5], 2 µM and 2.83 µM; in assay [6], 2 µM (≈ 4.72 µg/mL); in assay [7] it was 2 µM (≈ 4.72 µg/mL); in [8], 2 µM (≈ 4.72 µg/mL); in assay [2], 4 µM and 5.66 µM. For the same compound, the MIC in assay [9] is 2 µM (≈ 4.72 µg/mL).

Regarding `CC[C@H](C)[C@H](N)C(=O)N[C@@H](CC(N)=O)C(=O)N[C@@H](CC(C)C)C(=O)N[C@@H](CCCCN)C(=O)N[C@@H](C)C(=O)N[C@H](C(=O)N[C@@H](C)C(=O)N[C@@H](C)C(=O)N[C@@H](CC(C)C)C(=O)N[C@@H](C)C(=O)N[C@@H](CCCCN)C(=O)N[C@@H](CCCCN)C(=O)N[C@@H](CC(C)C)C(=O)N[C@@H](Cc1ccccc1)C(N)=O)[C@@H](C)CC` [INLKAIAALAKKLF], the MIC in assay [10] came out at 8 µM (≈ 12.1 µg/mL); in assay [11], 10.6 µM (≈ 16 µg/mL); in assay [12], 21.1 µM (≈ 32 µg/mL); in assay [13], 4 µM (≈ 6.05 µg/mL); in the assay with Pseudomonas aeruginosa, 63.4 µM (≈ 95.9 µg/mL); with Salmonella enterica, 10.6 µM (≈ 16 µg/mL). Further, the MIC against Escherichia coli JM109 was 5.28 µM (≈ 7.99 µg/mL); in assay [14], 21.1 µM (≈ 32 µg/mL); in [15], at least 32 µM; in the assay on Escherichia coli PFH13, 3.74 µM (≈ 5.65 µg/mL); in the assay on Escherichia coli PFL6, 5.28 µM (≈ 7.99 µg/mL); with Escherichia coli PFH12 it was 3.74 µM (≈ 5.65 µg/mL). In addition, the MIC in the assay on Staphylococcus xylosus is 0.991 µM (≈ 1.5 µg/mL); in assay [7], 4 µM (≈ 6.05 µg/mL); against Escherichia coli BL21, 2.64 µM (≈ 4 µg/mL); in assay [16], 21.1 µM (≈ 32 µg/mL); in assay [17], 10.6 µM (≈ 16 µg/mL); in the assay on Escherichia coli PFH1, 3.74 µM (≈ 5.65 µg/mL). In addition, the MIC in [18] is at least 32 µM; in the assay with Citrobacter koseri it was 2.64 µM (≈ 4 µg/mL); in assay [19], 4 µM (≈ 6.05 µg/mL); in assay [20] it was 5.28 µM (≈ 7.99 µg/mL); in assay [9], 4 µM (≈ 6.05 µg/mL).

On to `CC[C@H](C)[C@H](NC(=O)CN)C(=O)N[C@@H](Cc1cnc[nH]1)C(=O)N[C@@H](CC(=O)O)C(=O)N[C@H](C(=O)N[C@@H](CC(C)C)C(=O)N[C@@H](CCCCN)C(=O)N[C@@H](Cc1ccc(O)cc1)C(=O)NCC(=O)N[C@@H](CCCCN)C(=O)N[C@@H](CCCN=C(N)N)C(=O)N[C@@H](CO)C(N)=O)[C@@H](C)CC` [GIHDILKYGKRS], for which the MIC stood at 20 µM (≈ 27.7 µg/mL) in assay [21]; 10 µM (≈ 13.9 µg/mL) in assay [22]; 10 µM (≈ 13.9 µg/mL) in assay [23]; 20 µM (≈ 27.7 µg/mL) in assay [24]; 10 µM (≈ 13.9 µg/mL) in assay [25].

`NC(=O)[C@H](CCCN=C(N)N)NC(=O)[C@H](Cc1c[nH]c2ccccc12)NC(=O)[C@H](Cc1c[nH]c2ccccc12)NC(=O)[C@H](CCCN=C(N)N)NC(=O)[C@H](Cc1c[nH]c2ccccc12)NC(=O)[C@H](Cc1c[nH]c2ccccc12)NC(=O)[C@H](CCCN=C(N)N)NC(=O)[C@@H](N)CCCN=C(N)N` [RRWWRWWR]: the minimal inhibitory concentration (MIC) with Escherichia coli E423-17 is 8 µM (≈ 11.1 µg/mL); in assay [26], at least 32 µM; in assay [27], 8 µM (≈ 11.1 µg/mL); in assay [28], at least 32 µM; in [15] it was 3.6 µM (≈ 5 µg/mL); in assay [29], 5.66 µM (≈ 7.84 µg/mL). Further, the MIC in assay [7] worked out at 1.8 µM (≈ 2.5 µg/mL); in assay [2], 5.41 µM (≈ 7.49 µg/mL).
